Assay results published in BindingDB's records for doi:10.1016/j.ejmech.2021.113485 (Samara State Technical University, 2021).

Assay: Inhibition of p37 in Vaccinia virus Copenhagen infected in African green monkey Vero cells assessed as reduction in viral reproduction incubated for 4 days by neutral red dye based colorimetric analysis

SMILES	IC50 [µM]
O=C(NC12CC3CC(CC(C3)C1)C2)c1ccc(C(F)(F)F)cc1	0.133
CCC12CC3CC(C1)CC(NC(=O)c1ccc(C(F)(F)F)cc1)(C3)C2	4.1
CN(C(=O)c1ccc(C(F)(F)F)cc1)C12CC3CC(CC(C3)C1)C2	4.85
O=C(NCC12CC3CC(CC(C3)C1)C2)c1ccc(C(F)(F)F)cc1	0.27
O=C(NCC12CC3CC(CC(C3)C1)C2)c1ccc(Br)cc1	8.3
O=C(NC1C2CC3CC(C2)CC1C3)c1ccc(Br)cc1 (stereo not drawn)	3.06
O=C(NC1C2CC3CC(C2)CC1C3)c1ccc(C(F)(F)F)cc1 (stereo not drawn)	0.216
O=C(NNC(=O)C12CC3CC(CC(C3)C1)C2)c1ccc(C(F)(F)F)cc1	1.07
CC12CC3CC(C)(C1)CC(C(=O)NNC(=O)c1ccc(C(F)(F)F)cc1)(C3)C2	30.9
CCC12CC3CC(C1)CC(C(=O)NNC(=O)c1ccc(C(F)(F)F)cc1)(C3)C2	12.5
O=C(NNC(=O)c1ccc(C(F)(F)F)cc1)NC12CC3CC(CC(C3)C1)C2	36.3
O=C(NN=C1C2CC3CC(C2)CC1C3)c1ccc(C(F)(F)F)cc1	198
O=C(NNC1C2CC3CC(C2)CC1C3)c1ccc(C(F)(F)F)cc1 (stereo not drawn)	2.8
O=C(NNC1C2CC3CC1CC(Cl)(C3)C2)c1ccc(C(F)(F)F)cc1 (stereo not drawn)	3.52
CC(NNC(=O)c1ccc(C(F)(F)F)cc1)C12CC3CC(CC(C3)C1)C2 (stereo not drawn)	0.515
CCC12CC3CC(C1)CC(NNC(=O)c1ccc(C(F)(F)F)cc1)(C3)C2	1.66
CC12CC3CC(C1)CC(NC(=O)c1ccc(C(F)(F)F)cc1)(C3)C2	8.98
O=C(NN1C(=O)[C@@H]2[C@@H]3C=C[C@@H]([C@H]4C[C@@H]34)[C@@H]2C1=O)c1ccc(C(F)(F)F)cc1 [Tecovirimat]	0.0027
